B1: CD40L: CD40 ligand, used in the form of CD40L transfected fibroblasts (protein, UniProt P29965 113-261, looked up)
CD40 ligand, soluble form: MQKGDQNPQIAAHVISEASSKTTSVLQWAEKGYYTMSNNLVTLENGKQLTVKRQGLYYIYAQVTFCSNREASSQAPFIASLCLKSPGRFERILLRAANTHSSAKPCGQQSIHLGGVFELQPGASVFVNVTDPSQVSHGTGFTSFGLLKL
modifications: expressed on transfected fibroblasts

Experiments:
[1] = system: Raji cells; test: CD40 expression on Raji cells by flow cytometry; assay type: cell-based; details: 10 μM, 48 hours of incubation, vs DMSO control (FIG. 1)
[2] = system: B-CLL cells; test: CD40 expression in cultured B-CLL cells (anti-CD40 APC antibody mean intensity); assay type: cell-based, human; details: for mean intensity of anti-CD40 APC antibody: CD5+ CD19+ CLL blasts from a newly diagnosed patient, 4 days in culture (FIG. 2)
[3] = system: Namalwa cells; test: Proliferation of Namalwa cells alone, with control fibroblasts or with CD40L-expressing fibroblasts; assay type: cell-based; details: for sensitivity of Namalwa cells to CD40 ligation by CD40L: pre-treatment with compound, CD40L transfected fibroblasts (FIG. 4)
Excerpt: (§1) L929 cells are derived from an immortalized mouse fibroblast cell line, and are routinely used in in-vitro assays. The L929 cells used herein were obtained from the American Type Culture Collection (ATCC). Raji cells were also obtained from ATCC. Namalwa cells were obtained from the German Resource Centre for Biological Materials DSMZ. B-CLL cells were obtained from the peripheral blood of patients enrolled in a clinical trial.
(§2) Namalwa, Raji, CD40L-transfected fibroblasts and L929 fibroblasts were cultured in RPMI medium (Gibco-Invitrogen) supplemented with 10% FBS. B-CLL cells were cultured in Iscove's medium (Gibco-Invitrogen) plus 15% FBS. Namalwa, Raji and B-CLL cells were cultured with compounds from 2 to 4 days. Fibroblasts were maintained in culture in monolayers. The day before the co-culture, the fibroblasts were treated with mitomycin C to stop proliferation and were then replated. Suspension cells were then added to the fibroblasts and the culture was incubated for 2 to 4 days.
(§3) Flow cytometry was then used to determine cell numbers and the percentage of apoptotic cells using the FACSArray system (BD Biosciences). The cells were stained with 7-Amino-Actinomycin D (7-AAD) (BD Pharmingen) for 10 minutes at room temperature prior to flow cytometry analysis in order to identify non-viable cells.

[4] = system: B-CLL cells; test: Response of B-CLL cells to CD40L-transfected fibroblasts after compound pre-treatment; assay type: cell-based, human; details: for response of B-CLL cells to CD40L treatment (percentage of viable cells per ml): relapsed patient at baseline, pre-treated 48 hours, then coculture with CD40L-transfected or control fibroblasts 48 hours (FIG. 5)
Excerpt: as §1, §2, §3
Pre-treatment with immunomodulatory compounds also augmented the sensitivity of Namalwa cells and CLL cells to CD40 ligation by CD40L. B-CLL cells taken from a relapsed patient at baseline were pre-treated with either 1,3-dioxo-2-(2,6-dioxopiperidin-3-yl)-4-aminoisoindoline or 1-oxo-2-(2,6-dioxopiperidin-3-yl)-4-aminoisoindoline for 48 hours. The cells were then cocultured with either CD40L-transfected fibroblasts or control fibroblasts for another 48 hours. The percentage of viable cells per ml was then measured (FIG. 5). Cells from another patient were pretreated with 1-oxo-2-(2,6-dioxopiperidin-3-yl)-4-aminoisoindoline for 24 hours and then cocultured with either CD40L-transfected fibroblasts or control fibroblasts for an additional 48 hours.

[5] = system: normal primary B cells; test: Effect on normal primary B cells (p21 expression, viable cells); assay type: cell-based; details: for viable normal B cells: normal primary B cells in culture; for level of p21 expression: normal primary B cells, after 24 hours and 72 hours of culture
Description: as §3
Total RNA was isolated from Namalwa and B-CLL cells using RNAeasy (Qiagen). Gene expression analysis was performed using Affymetrix human U133A gene chips. Double-stranded cDNA was synthesized using […] of total RNA. Biotin-labeled cRNA was synthesized using a MessageAmp aRNA kit (Ambion). […] of cRNA was fragmented and hybridized to each array. The above procedures were performed twice for each RNA sample to obtain replicate biotin-labeled probes.
Cells cultured in the presence or absence of 1,3-dioxo-2-(2,6-dioxopiperidin-3-yl)-4-aminoisoindoline or 1-oxo-2-(2,6-dioxopiperidin-3-yl)-4-aminoisoindoline were characterized using flow cytometry and gene array analysis.

[6] = system: CD19^+CD5^+ cells; test: CD40 on CD19+CD5+ cells of patients undergoing therapy, flow cytometry; assay type: in vivo, human

Molecule	percentage of CD40+ cells [1]	mean intensity of anti-CD40 APC antibody [2]	mean intensity of anti-CD40 APC antibody in CD5+CD19+ CLL blasts ([2]; newly diagnosed patient, 0.1, 1.0 or 10 μM, 24 hours, vs DMSO (FIG. 3))	proliferation of Namalwa cells ([3]; 0.01-10 μM, alone or in the presence of control fibroblasts (FIG. 4))	sensitivity of Namalwa cells to CD40 ligation by CD40L [3]	response of B-CLL cells to CD40L treatment (percentage of viable cells per ml) [4]	viable normal B cells [5]	level of p21 expression [5]	response of B-CLL cells to CD40L treatment (total cells/ml) ([4]; newly diagnosed patient, pre-treated 0.1, 1.0 or 10 μM 24 hours, then CD40L-transfected or control fibroblasts 48 h (FIG. 6))	CD40+ cells among CD19+CD5+ cells ([6]; patient of FIG. 7, after 8 days of therapy, baseline 6.4%) [%]	CD40+ cells among CD19+CD5+ cells ([6]; patient of FIG. 8, after 8 days of therapy, baseline 12.5%) [%]	CD40+ cells among CD19+CD5+ cells ([6]; patient of FIG. 9, after 28 days of therapy, baseline 2.4%) [%]	CD40 in B-CLL cells of patients ([6]; patients undergoing therapy, summary statement)	cell growth / cell apoptosis ([3]; Namalwa cells treated with CD40L transfected fibroblasts)	cell growth / cell apoptosis ([4]; B-CLL cells treated with CD40L transfected fibroblasts)
Nc1cccc2c1C(=O)N(C1CCC(=O)NC1=O)C2=O (stereo not drawn) [1,3-dioxo-2-(2,6-dioxopiperidin-3-yl)-4-aminoisoindoline]	increase the number of CD40^+ Raji cells	approximately doubled	augments the expression of CD40 in a dose responsive manner	inhibiting cell proliferation in a dose dependent manner	increased the sensitivity of Namalwa cells to CD40 ligation by CD40L	increases the response of B-CLL cells to CD40L treatment	dose-dependent increase in viable normal B cells	did not increase the level of p21 expression							
Nc1cccc2c1CN(C1CCC(=O)NC1=O)C2=O (stereo not drawn) [1-oxo-2-(2,6-dioxopiperidin-3-yl)-4-aminoisoindoline]	increase the number of CD40^+ Raji cells	approximately doubled			increased the sensitivity of Namalwa cells to CD40 ligation by CD40L	increases the response of B-CLL cells to CD40L treatment	dose-dependent increase in viable normal B cells	did not increase the level of p21 expression	increases the response of B-CLL cells to CD40L treatment	57.4	36.7	13.9	upregulation of CD40 in B-CLL cells		
B1														inhibit cell growth and/or augment cell apoptosis	inhibit cell growth and/or augment cell apoptosis

Reference: patent US20090232796A1, “METHOD OF TREATING CANCER BY ADMINISTERING AN IMMUNOMODULATORY COMPOUND IN COMBINATION WITH A CD40 ANTIBODY OR CD40 LIGAND” (priority 2008, published 2009)
